# Experimental data taken from patent publication US20240287108A1, “nSMASE2 INHIBITOR PRODRUGS WITH ENHANCED ORAL AND BRAIN EXPOSURES” (The Johns Hopkins University, priority 2021, published 2024).
# “Also recorded” adds a separate entry of the source. Read-outs that look alike come from different tables or passages of the source.
# Experiments:
# [1] = time-dependent oral pharmacokinetics in mice; format: in vivo, mouse
# Description: As described earlier, we identified P1 and P18 as the most promising candidates for time dependent PK.
# All PK studies in mice were conducted according to protocols approved by the Animal Care and Use Committee at Johns Hopkins University. Male CD-1 mice between 25 and 30 g were obtained from Harlan and maintained on a 12 h light-dark cycle with ad libitum access to food and water. […] All of the formulations were freshly prepared prior to the dosing. The mice were sacrificed at specified time points (either 2 h or 0.25, 0.5, 1, 2, 4, 6, and 8 h) post drug administration. For the collection of plasma and brain tissue, animals were euthanized with CO2, and blood samples were collected in heparinized microtubes by cardiac puncture. Brains were dissected and immediately flash frozen (−80° C.) Blood samples were spun at 2000 g for 15 min, and plasma was removed and stored at −80° C. until LC-MS/MS analysis. Prior to extraction, frozen samples were thawed on ice.
# Brain tissues were diluted 1:5 w/v with acetonitrile containing losartan (0.5 μm) and homogenized, followed by vortex-mixing and centrifugation at 10,000 g for 10 min at 4° C. A 50 μL aliquot of the supernatant were diluted with 50 uL of water and transferred to 250 μL polypropylene autosampler vials sealed with teflon caps. Then, 2 μL of the sample were injected into the LC/MS/MS system for analysis. Chromatographic analysis was performed using an Accela ultra-high-performance system consisting of an analytical pump and an autosampler coupled with a TSQ Vantage mass spectrometer. […] The mobile phase consisted of 0.1% formic acid in acetonitrile and 0.1% formic acid in water with gradient elution were used. […] Plasma concentrations (nmol/ml) as well as brain tissue concentrations (nmol/g) were determined and plots of mean plasma concentration versus time were constructed. Non-compartmental analysis modules in Phoenix WinNonlin version 7.0 (Certara USA, Inc., Princeton, NJ) were used to quantify exposures (AUC0-t).
# [2] = solubility of P18 in water and in Soluplus®/Labrasol® micelle formulation; format: physicochemical
# Text: In contrast, the solubility of the prodrugs, e.g., P18 in the micelle formulation were improved as presented below.
# nSMase2 = molecular target: T1, nSMase2 (Mus musculus, UniProt Q9JJY3); assay: nSMase2 activity in striata of IL-1β-injected mice; format: in vivo; conditions: P18 3 and 10 mg/kg DPTIP equivalent PO 30 min before intrastriatal IL-1β; 4 h
# T1 construct: the striata dissected and analyzed for nSMase2 activity using a modification of previously published protocols; from tissue; host or cells: striata of GFAP-EGFP transgenic mice, homogenised and sonicated lysate
# T1 sequence (Q9JJY3 1-655): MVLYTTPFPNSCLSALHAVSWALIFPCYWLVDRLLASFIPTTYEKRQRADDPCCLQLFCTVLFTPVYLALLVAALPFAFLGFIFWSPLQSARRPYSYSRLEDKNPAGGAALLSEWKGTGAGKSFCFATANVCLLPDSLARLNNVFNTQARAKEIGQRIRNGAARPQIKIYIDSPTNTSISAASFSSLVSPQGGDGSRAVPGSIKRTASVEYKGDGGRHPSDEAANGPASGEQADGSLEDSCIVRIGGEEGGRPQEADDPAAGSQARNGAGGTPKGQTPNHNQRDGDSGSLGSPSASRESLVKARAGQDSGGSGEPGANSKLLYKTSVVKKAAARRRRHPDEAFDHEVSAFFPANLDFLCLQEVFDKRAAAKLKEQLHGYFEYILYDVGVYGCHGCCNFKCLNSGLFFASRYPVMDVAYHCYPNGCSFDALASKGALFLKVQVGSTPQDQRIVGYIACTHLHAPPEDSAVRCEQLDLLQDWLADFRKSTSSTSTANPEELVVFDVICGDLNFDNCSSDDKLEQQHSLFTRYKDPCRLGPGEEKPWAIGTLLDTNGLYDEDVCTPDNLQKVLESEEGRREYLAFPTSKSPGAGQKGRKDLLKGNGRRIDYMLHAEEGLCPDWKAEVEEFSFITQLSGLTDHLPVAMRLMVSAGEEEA
# Text: We have previously reported that nSMase2 regulates the secretion of extracellular vesicles from astrocytes in response to a focal inflammatory brain lesion. Rojas et al., 2018. Striatal injection of IL-1β in mice expressing GFAP-EGFP in astroglia evokes the release of GFP-labelled EVs that rapidly enter into plasma and target multiple organ systems. Dickens et al., 2017. We used this mouse model to evaluate the ability of P18 to inhibit EV release by the inhibition of nSMase2 activity in vivo. […] Interleukin-1β-injected mice, orally pre-dosed with P18 (30 min prior) were euthanized 4-hours post-IL-1β injection. GFP labeled (GFP+) EVs were quantified in plasma and nSMase2 activity was measured in the brain striata.
# Rojas et al., 2018; Figuera-Losada et al., 2015. Briefly, mice striata were homogenized in ice-cold Tris-HCl buffer (0.1 M, pH 7.5) containing 250 mM sucrose, 10 mM EGTA (Research Products International, Prospect, IL), 100 μM sodium molybdate and protease inhibitors (Cell Signaling, Danvers, MA) using Biomasher II and then sonicated using Kontes' Micro Ultrasonic Cell Disrupter (three pulses of 15 s duration on ice with 30 s between pulses). […] At the end of the reaction period, the relative fluorescence units were measured at Ex 530 nm, Em 590 nm. […]
compound,measurement,setting,value
"CCC1CC(N2CCCCC2)CC(CC)N1C(=O)Oc1c(OC)cc(-c2nc(-c3ccccc3)c(-c3cccs3)[nH]2)cc1OC (stereo not drawn) [Compound P18, 2,6-Dimethoxy-4-(5-phenyl-4-(thiophen-2-yl)-1H-imidazol-2-yl)phenyl 2′,6′-diethyl-[1,4′-bipiperidine]-1′-carboxylate]",plasma exposure of the intact compound (AUC0-t),[1]; oral 10 mg/kg DPTIP equivalent,0.969 µM·h
same,conversion of prodrug to DPTIP in vivo,[1]; oral 10 mg/kg DPTIP equivalent (P18: in the brain),> 50%
same,solubility,"[2]; Labrasol micelles in water, aqueous with cosolvent or surfactant or cyclodextrin, solid dispersion in Labrasol®, hydrated with water, read-out: solubility in micelle formulation",1700 µg/mL
same,solubility,"[2]; Soluplus micelles in water, aqueous with cosolvent or surfactant or cyclodextrin, solid dispersion in Soluplus®, hydrated with water, read-out: solubility in micelle formulation",1700 µg/mL
same,solubility,"[2]; water, read-out: solubility in water",< 500 µg/mL
same,nSMase2 activity in brain striata,nSMase2,attenuated nSMase2 activity; also recorded: inhibition of brain nSMase2 activity; also recorded: reduced nSMase2 activity increased in response to IL-1β in a dose dependent manner; also recorded: significant inhibition of nSMase2 activity
